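How tested: cells in 96-well plates exposed to compound for 48 hours at five concentrations. TGI denotes the concentration required for complete inhibition of growth.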
Assays:
Experiment in all cases: growth of human tumour cells (NCI), 48 h
786-0 renal = system: 786-0 renal
A498 renal = system: A498 renal
A549 NSCLC = system: A549 NSCLC
ACHN renal = system: ACHN renal
CAKI-1 renal = system: CAKI-1 renal
CCRF-CEM leukemia = system: CCRF-CEM leukemia
COLO 205 colon = system: COLO 205 colon
DLD-1 colon = system: DLD-1 colon
DMS 114 small cell lung = system: DMS 114 small cell lung
DMS 273 small cell lung = system: DMS 273 small cell lung
HCC-2998 colon = system: HCC-2998 colon
HCT-116 colon = system: HCT-116 colon
HCT-15 colon = system: HCT-15 colon
HL-60(TB) leukemia = system: HL-60(TB) leukemia
HOP-18 NSCLC = system: HOP-18 NSCLC
HOP-62 NSCLC = system: HOP-62 NSCLC
HT29 colon = system: HT29 colon
IGROV1 ovarian = system: IGROV1 ovarian
K-562 leukemia = system: K-562 leukemia
KM12 colon = system: KM12 colon
KM20L2 colon = system: KM20L2 colon
LOX IMVI melanoma = system: LOX IMVI melanoma
LXFL 529 NSCLC = system: LXFL 529 NSCLC
M14 melanoma = system: M14 melanoma
M19-MEL melanoma = system: M19-MEL melanoma
MALME-3M melanoma = system: MALME-3M melanoma
MOLT-4 leukemia = system: MOLT-4 leukemia
NCI-H226 lung = system: NCI-H226 lung
NCI-H23 lung = system: NCI-H23 lung
NCI-H460 lung = system: NCI-H460 lung
NCI-H522 lung = system: NCI-H522 lung
OVCAR-3 ovarian = system: OVCAR-3 ovarian
OVCAR-4 ovarian = system: OVCAR-4 ovarian
OVCAR-5 ovarian = system: OVCAR-5 ovarian
OVCAR-8 ovarian = system: OVCAR-8 ovarian
RPMI-8226 leukemia = system: RPMI-8226 leukemia
RXF 393 renal = system: RXF 393 renal
SF-268 CNS = system: SF-268 CNS
SF-295 CNS = system: SF-295 CNS
SF-539 CNS = system: SF-539 CNS
SK-MEL-2 melanoma = system: SK-MEL-2 melanoma
SK-MEL-28 melanoma = system: SK-MEL-28 melanoma
SK-MEL-5 melanoma = system: SK-MEL-5 melanoma
SK-OV-3 ovarian = system: SK-OV-3 ovarian
SN12C renal = system: SN12C renal
SNB-19 CNS = system: SNB-19 CNS
SNB-75 CNS = system: SNB-75 CNS
SNB-78 CNS = system: SNB-78 CNS
SW-620 colon = system: SW-620 colon
TK-10 renal = system: TK-10 renal
U251 CNS = system: U251 CNS
UACC-257 melanoma = system: UACC-257 melanoma
UACC-62 melanoma = system: UACC-62 melanoma
UO-31 renal = system: UO-31 renal
EKVX NSCLC = system: EKVX NSCLC
HOP-92 NSCLC = system: HOP-92 NSCLC
SR leukemia = system: SR leukemia

Measured: TGI

O=C(CSc1nnc(Cc2ccccc2)o1)Nc1ccc(Cl)cc1Cl
not listed: EKVX NSCLC | HOP-92 NSCLC | SR leukemia
> 100 µM: all other assays above

CCc1cccc(CC)c1NC(=O)C(=O)Cc1nc2ccccc2o1
not listed: DMS 273 small cell lung | SK-MEL-5 melanoma | SNB-75 CNS
> 100 µM: all other assays above

— PubChem BioAssay (NCI)
